In the supplement of paper PMC10307832:

Tests used:
Experiment in all cases: relative viability (nuclei count vs DMSO), 5 days (fraction); higher = more cells survive
SK-LU-1 = system: SK-LU-1
Summary of the method: (§1)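 Lung cancer cell lines were pin-tool dosed in 1536-well plates on the day after seeding, with either a lone drug or a fixed anchor-drug dose plus five library-drug doses (not always all listed) in √10 steps. Nuclei were counted on 4× images after 5 days. Relative viability is the ratio of treated-well to vehicle-well nuclei counts, with each value a median of duplicate plates.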

UMC-11 = system: UMC-11
Summary of the method: as §1

NCI-H322M = system: NCI-H322M
Summary of the method: as §1

NCI-H647 = system: NCI-H647
Summary of the method: as §1

NCI-H1755 = system: NCI-H1755
Summary of the method: as §1

NCI-H522 = system: NCI-H522
Summary of the method: as §1

HOP-62 = system: HOP-62
Summary of the method: as §1

LCLC-103H = system: LCLC-103H
Summary of the method: as §1

COR-L 105 = system: COR-L 105
Summary of the method: as §1

CAL-12T = system: CAL-12T
Summary of the method: as §1

HCC-44 = system: HCC-44
Summary of the method: as §1

EKVX = system: EKVX
Summary of the method: as §1

NCI-H1793 = system: NCI-H1793
Summary of the method: as §1

NCI-H520 = system: NCI-H520
Summary of the method: as §1

201T = system: 201T
Summary of the method: as §1

NCI-H2009 = system: NCI-H2009
Summary of the method: as §1

NCI-H1437 = system: NCI-H1437
Summary of the method: as §1

HCC-827 = system: HCC-827
Summary of the method: as §1

NCI-H441 = system: NCI-H441
Summary of the method: as §1

H3255 = system: H3255
Summary of the method: as §1

EPLC-272H = system: EPLC-272H
Summary of the method: as §1

HCC-15 = system: HCC-15
Summary of the method: as §1

NCI-H1355 = system: NCI-H1355
Summary of the method: as §1

PC-3 [JPC-3] = system: PC-3 [JPC-3]
Summary of the method: as §1

Nc1cccc2c1CN(C1CCC(=O)NC1=O)C2=O (stereo not given) [Lenalidomide] + CC(=O)c1c(C)c2cnc(Nc3ccc(N4CCNCC4)cn3)nc2n(C2CCCC2)c1=O [Palbociclib] (partner 0.5 µM)
relative viability (SK-LU-1; first compound 0.253 µM): 0.366 | relative viability (SK-LU-1; first compound 0.8 µM): 0.342 | relative viability (SK-LU-1; first compound 2.53 µM): 0.413 | relative viability (SK-LU-1; first compound 8 µM): 0.354 | relative viability (UMC-11; first compound 0.253 µM): 0.328 | relative viability (UMC-11; first compound 0.8 µM): 0.363 | relative viability (UMC-11; first compound 2.53 µM): 0.308 | relative viability (UMC-11; first compound 8 µM): 0.285 | relative viability (NCI-H322M; first compound 0.253 µM): 0.53 | relative viability (NCI-H322M; first compound 0.8 µM): 0.521 | relative viability (NCI-H322M; first compound 2.53 µM): 0.473 | relative viability (NCI-H322M; first compound 8 µM): 0.488 | relative viability (NCI-H647; first compound 0.253 µM): 0.467 | relative viability (NCI-H647; first compound 0.8 µM): 0.36 | relative viability (NCI-H647; first compound 2.53 µM): 0.402 | relative viability (NCI-H647; first compound 8 µM): 0.287 | relative viability (NCI-H1755; first compound 0.253 µM): 0.451 | relative viability (NCI-H1755; first compound 0.8 µM): 0.434 | relative viability (NCI-H1755; first compound 2.53 µM): 0.429 | relative viability (NCI-H1755; first compound 8 µM): 0.441 | relative viability (NCI-H522; first compound 0.253 µM): 0.91 | relative viability (NCI-H522; first compound 0.8 µM): 1 | relative viability (NCI-H522; first compound 2.53 µM): 1.19 | relative viability (NCI-H522; first compound 8 µM): 0.716 | relative viability (HOP-62; first compound 0.253 µM): 0.45 | relative viability (HOP-62; first compound 0.8 µM): 0.41 | relative viability (HOP-62; first compound 2.53 µM): 0.455 | relative viability (HOP-62; first compound 8 µM): 0.378 | relative viability (LCLC-103H; first compound 0.253 µM): 0.484 | relative viability (LCLC-103H; first compound 0.8 µM): 0.459 | relative viability (LCLC-103H; first compound 2.53 µM): 0.464 | relative viability (LCLC-103H; first compound 8 µM): 0.47 | relative viability (COR-L 105; first compound 0.253 µM): 0.394 | relative viability (COR-L 105; first compound 0.8 µM): 0.412 | relative viability (COR-L 105; first compound 2.53 µM): 0.409 | relative viability (COR-L 105; first compound 8 µM): 0.413 | relative viability (CAL-12T; first compound 0.253 µM): 0.402 | relative viability (CAL-12T; first compound 0.8 µM): 0.579 | relative viability (CAL-12T; first compound 2.53 µM): 0.785 | relative viability (CAL-12T; first compound 8 µM): 0.472 | relative viability (HCC-44; first compound 0.253 µM): 0.965 | relative viability (HCC-44; first compound 0.8 µM): 0.785 | relative viability (HCC-44; first compound 2.53 µM): 0.972 | relative viability (HCC-44; first compound 8 µM): 0.907 | relative viability (EKVX; first compound 0.253 µM): 0.415 | relative viability (EKVX; first compound 0.8 µM): 0.309 | relative viability (EKVX; first compound 2.53 µM): 0.355 | relative viability (EKVX; first compound 8 µM): 0.372 | relative viability (NCI-H1793; first compound 0.253 µM): 0.363 | relative viability (NCI-H1793; first compound 2.53 µM): 0.296 | relative viability (NCI-H1793; first compound 8 µM): 0.256 | relative viability (NCI-H520; first compound 0.253 µM): 0.225 | relative viability (NCI-H520; first compound 0.8 µM): 0.216 | relative viability (NCI-H520; first compound 2.53 µM): 0.236 | relative viability (NCI-H520; first compound 8 µM): 0.2 | relative viability (201T; first compound 0.253 µM): 0.394 | relative viability (201T; first compound 0.8 µM): 0.359 | relative viability (201T; first compound 2.53 µM): 0.38 | relative viability (201T; first compound 8 µM): 0.351 | relative viability (NCI-H2009; first compound 0.253 µM): 0.206 | relative viability (NCI-H2009; first compound 0.8 µM): 0.232 | relative viability (NCI-H2009; first compound 2.53 µM): 0.218 | relative viability (NCI-H2009; first compound 8 µM): 0.221 | relative viability (NCI-H1437; first compound 0.253 µM): 0.331 | relative viability (NCI-H1437; first compound 0.8 µM): 0.246 | relative viability (NCI-H1437; first compound 2.53 µM): 0.359 | relative viability (NCI-H1437; first compound 8 µM): 0.353 | relative viability (HCC-827; first compound 0.253 µM): 0.506 | relative viability (HCC-827; first compound 0.8 µM): 0.432 | relative viability (HCC-827; first compound 2.53 µM): 0.538 | relative viability (HCC-827; first compound 8 µM): 0.489 | relative viability (NCI-H441; first compound 0.253 µM): 0.239 | relative viability (NCI-H441; first compound 0.8 µM): 0.205 | relative viability (NCI-H441; first compound 2.53 µM): 0.264 | relative viability (NCI-H441; first compound 8 µM): 0.202 | relative viability (H3255; first compound 0.253 µM): 0.312 | relative viability (H3255; first compound 0.8 µM): 0.302 | relative viability (H3255; first compound 2.53 µM): 0.314 | relative viability (H3255; first compound 8 µM): 0.314 | relative viability (EPLC-272H; first compound 0.253 µM): 0.34 | relative viability (EPLC-272H; first compound 0.8 µM): 0.383 | relative viability (EPLC-272H; first compound 2.53 µM): 0.333 | relative viability (EPLC-272H; first compound 8 µM): 0.322 | relative viability (HCC-15; first compound 0.253 µM): 0.685 | relative viability (HCC-15; first compound 0.8 µM): 0.683 | relative viability (HCC-15; first compound 2.53 µM): 0.904 | relative viability (HCC-15; first compound 8 µM): 0.708 | relative viability (NCI-H1355; first compound 0.253 µM): 0.397 | relative viability (NCI-H1355; first compound 0.8 µM): 0.372 | relative viability (NCI-H1355; first compound 2.53 µM): 0.413 | relative viability (NCI-H1355; first compound 8 µM): 0.286 | relative viability (PC-3 [JPC-3]; first compound 0.253 µM): 0.545 | relative viability (PC-3 [JPC-3]; first compound 0.8 µM): 0.511 | relative viability (PC-3 [JPC-3]; first compound 2.53 µM): 0.548 | relative viability (PC-3 [JPC-3]; first compound 8 µM): 0.57
